Reference: PubChem BioAssay AID248 (DTP/NCI, 2004)
Where “and” joins values, the source holds several entries; their conditions need not be identical. Identical values can stand only once. Inconclusive results and toxic doses are left out. No stated cut-off is given here; in the data, active means T/C of 150% or more; inactive means T/C below 125%.

Test system: L1210 leukemia ip in BDF1 mice, survival T/C
Assay: NCI In Vivo Anticancer Drug Screen. Data for tumor model L1210 Leukemia (intraperitoneal) in B6D2F1 (BDF1) mice
Conditions: endpoint: mean survival time, higher = longer survival
In short: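 Transplanted-tumor mice were given test agent; controls received vehicle only. Survival readings from the two groups were divided (treated over control).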

[1] = dose: 100.0 mg/kg/injection, schedule: Q01DX009 (ip), vehicle: Klucel (hydroxypropylcellulose) (HPC)
[2] = dose: 100.0 mg/kg/injection, schedule: Q04DX003 (ip), vehicle: Klucel (hydroxypropylcellulose) (HPC)
[3] = dose: 200.0 mg/kg/injection, schedule: Q01DX009 (ip), vehicle: Klucel (hydroxypropylcellulose) (HPC)
[4] = dose: 200.0 mg/kg/injection, schedule: Q04DX003 (ip), vehicle: Klucel (hydroxypropylcellulose) (HPC)
[5] = dose: 400.0 mg/kg/injection, schedule: Q01DX009 (ip), vehicle: Klucel (hydroxypropylcellulose) (HPC)
[6] = dose: 400.0 mg/kg/injection, schedule: Q04DX003 (ip), vehicle: Klucel (hydroxypropylcellulose) (HPC)
[7] = dose: 100.0 mg/kg/injection, schedule: Q04DX002 (ip), vehicle: saline with Tween-80
[8] = dose: 200.0 mg/kg/injection, schedule: Q04DX002 (ip), vehicle: saline with Tween-80
[9] = dose: 400.0 mg/kg/injection, schedule: Q04DX002 (ip), vehicle: saline with Tween-80
[10] = dose: 100.0 mg/kg/injection, schedule: Q04DX003 (ip), vehicle: saline
[11] = dose: 200.0 mg/kg/injection, schedule: Q04DX003 (ip), vehicle: saline
[12] = dose: 400.0 mg/kg/injection, schedule: Q04DX003 (ip), vehicle: saline
[13] = dose: 100.0 mg/kg/injection, schedule: Q01DX001 (ip), vehicle: saline
[14] = dose: 100.0 mg/kg/injection, schedule: Q04DX002 (ip), vehicle: Klucel (hydroxypropylcellulose) (HPC)
[15] = dose: 200.0 mg/kg/injection, schedule: Q04DX002 (ip), vehicle: Klucel (hydroxypropylcellulose) (HPC)
[16] = dose: 50.0 mg/kg/injection, schedule: Q01DX009 (ip), vehicle: saline
[17] = dose: 100.0 mg/kg/injection, schedule: Q04DX003 (ip), vehicle: saline with Tween-80
[18] = dose: 200.0 mg/kg/injection, schedule: Q01DX001 (ip), vehicle: saline
[19] = dose: 400.0 mg/kg/injection, schedule: Q01DX001 (ip), vehicle: saline
[20] = dose: 400.0 mg/kg/injection, schedule: Q04DX002 (ip), vehicle: Klucel (hydroxypropylcellulose) (HPC)

Measured: T/C

O=CN/N=C\c1cc2ccccc2c2ccccc12
inactive: dose: 50.0 mg/kg/injection, schedule: Q01DX001 (ip), vehicle: carboxymethylcellulose (CMC) 96 % of control | dose: 100.0 mg/kg/injection, schedule: Q01DX001 (ip), vehicle: carboxymethylcellulose (CMC) 93 % of control | dose: 200.0 mg/kg/injection, schedule: Q01DX001 (ip), vehicle: carboxymethylcellulose (CMC) 93 % of control | dose: 400.0 mg/kg/injection, schedule: Q01DX001 (ip), vehicle: carboxymethylcellulose (CMC) 87 % of control

Cc1cccc(C)c1NC(=O)Oc1ccc2ccccc2c1
inactive: [1] 91 % of control | [2] 104 % of control | [3] 94 % of control | [4] 104 % of control | [5] 101 % of control | [6] 105 % of control

CCOc1nc(N)nc2c1-c1ccc(OC)cc1CC2
inactive: [7] 91 % of control | [8] 102 % of control | [9] 87 % of control

CCOC(=O)N1Cc2cc3cc4c(cc3nc2C1)OCO4
inactive: [10] 94 % of control | [11] 94 % of control | [12] 96 % of control

N=c1ccn(CC(Cl)COc2ccccc2)cc1 (centres undefined)
inactive: dose: 5.0 mg/kg/injection, schedule: Q01DX001 (ip), vehicle: saline 103 % of control | dose: 10.0 mg/kg/injection, schedule: Q01DX001 (ip), vehicle: saline 105 % of control | dose: 20.0 mg/kg/injection, schedule: Q01DX001 (ip), vehicle: saline 105 % of control | dose: 40.0 mg/kg/injection, schedule: Q01DX001 (ip), vehicle: saline 100 % of control | dose: 80.0 mg/kg/injection, schedule: Q01DX001 (ip), vehicle: saline 105 % of control | [13] 101 % of control

COC(=O)c1cc(OC)nc(OC)c1
inactive: [2] 102 % of control | [4] 110 % of control | [6] 96 % of control

CCCCOc1ccc(/C=N/NC(=S)Nc2ccccc2)cc1
inactive: [1] 97 % of control | [3] 98 % of control | [5] 95 % of control

NC(CCC(=O)NC1(C(=O)O)C2CC3CC(C2)CC1C3)C(=O)O (centres undefined)
inactive: [1] 87 % of control | [3] 103 % of control | [5] 89 % of control

CNc1ncnc(NC)c1[N+](=O)[O-]
inactive: [14] 101 % of control | [15] 90 % of control

Cc1cccc(NC(=O)CCc2ccc(N3C(N)=NC(N)=NC3(C)C)cc2)c1
inactive: dose: 3.13 mg/kg/injection, schedule: Q01DX009 (ip), vehicle: saline 102 % of control | dose: 6.25 mg/kg/injection, schedule: Q01DX009 (ip), vehicle: saline 94 % of control | dose: 12.5 mg/kg/injection, schedule: Q01DX009 (ip), vehicle: saline 97 % of control | dose: 25.0 mg/kg/injection, schedule: Q01DX009 (ip), vehicle: saline 96 % of control | [16] 103 % of control

Cn1c2ccccc2c(=O)c2cc([N+](=O)[O-])ccc21
inactive: [17] 93 % of control | dose: 200.0 mg/kg/injection, schedule: Q04DX003 (ip), vehicle: saline with Tween-80 97 % of control | dose: 400.0 mg/kg/injection, schedule: Q04DX003 (ip), vehicle: saline with Tween-80 93 % of control

COC(=O)c1cc(Cl)ccc1O
inactive: dose: 37.5 mg/kg/injection, schedule: Q04DX003 (ip), vehicle: Klucel (hydroxypropylcellulose) (HPC) 100 % of control | dose: 75.0 mg/kg/injection, schedule: Q04DX003 (ip), vehicle: Klucel (hydroxypropylcellulose) (HPC) 100 % of control | dose: 150.0 mg/kg/injection, schedule: Q04DX003 (ip), vehicle: Klucel (hydroxypropylcellulose) (HPC) 92 % of control

CCn1c2ccccc2c2nnc(NCCCO)nc21
inactive: [7] 96 % of control | dose: 100.0 mg/kg/injection, schedule: Q04DX002 (ip), vehicle: saline 101 % of control | [8] 100 % of control | dose: 200.0 mg/kg/injection, schedule: Q04DX002 (ip), vehicle: saline 97 % of control | [9] 94 % of control | dose: 400.0 mg/kg/injection, schedule: Q04DX002 (ip), vehicle: saline 101 % of control

COc1ccc(NC(=O)Nc2ccc(F)c([N+](=O)[O-])c2)c(Cl)c1
inactive: dose: 25.0 mg/kg/injection, schedule: Q01DX009 (ip), vehicle: saline with Tween-80 95 % of control | dose: 50.0 mg/kg/injection, schedule: Q01DX009 (ip), vehicle: saline with Tween-80 100 % of control | dose: 100.0 mg/kg/injection, schedule: Q01DX009 (ip), vehicle: saline with Tween-80 96 % of control

CC1(C)N=C(c2ccccc2)C2(c3ccccc3)N1C2(C)C (centres undefined)
inactive: dose: 6.0 mg/kg/injection, schedule: Q01DX001 (ip), vehicle: Klucel (hydroxypropylcellulose) (HPC) 92 % of control | dose: 12.0 mg/kg/injection, schedule: Q01DX001 (ip), vehicle: Klucel (hydroxypropylcellulose) (HPC) 101 % of control | dose: 25.0 mg/kg/injection, schedule: Q01DX001 (ip), vehicle: Klucel (hydroxypropylcellulose) (HPC) 101 % of control

COc1cccc2c1C(=O)c1c(OC)c(C(Br)Br)cc(OC)c1C2=O
inactive: dose: 12.5 mg/kg/injection, schedule: Q01DX009 (ip), vehicle: other 99 % of control | dose: 25.0 mg/kg/injection, schedule: Q01DX009 (ip), vehicle: other 89 % of control | dose: 50.0 mg/kg/injection, schedule: Q01DX009 (ip), vehicle: other 89 % of control | dose: 100.0 mg/kg/injection, schedule: Q01DX009 (ip), vehicle: other 89 % of control | dose: 200.0 mg/kg/injection, schedule: Q01DX009 (ip), vehicle: other 87 % of control

c1ccc2nc3c(nc2c1)[nH]c1ccccc13
inactive: dose: 62.5 mg/kg/injection, schedule: Q01DX Z (ip), vehicle: carboxymethylcellulose (CMC) 94 % of control | dose: 125.0 mg/kg/injection, schedule: Q01DX Z (ip), vehicle: carboxymethylcellulose (CMC) 100 % of control | dose: 250.0 mg/kg/injection, schedule: Q01DX Z (ip), vehicle: carboxymethylcellulose (CMC) 95 % of control | dose: 500.0 mg/kg/injection, schedule: Q01DX Z (ip), vehicle: carboxymethylcellulose (CMC) 91 % of control

Cc1cc(Cl)nc2ccc(Cc3ccccc3)cc12
inactive: [13] 102 % of control | [18] 96 % of control | [19] 103 % of control

C[Si](C)O[Si](C)C
inactive: [10] 91 % of control | [11] 101 % of control | [12] 101 % of control

CC(C)OC(=O)N1CCN(C(=O)OC(C)C)CC1
inactive: [1] 97 % of control | [14] 93 % of control | [3] 94 % of control | [15] 93 % of control | [5] 102 % of control | [20] 117 % of control

CCCOC(=O)c1cncn1C(C)c1ccccc1 (centres undefined)
inactive: dose: 25.0 mg/kg/injection, schedule: Q01DX001 (ip), vehicle: saline 98 % of control | dose: 50.0 mg/kg/injection, schedule: Q01DX001 (ip), vehicle: saline 96 % of control | [13] 94 % of control

CC(=O)c1cc([N+](=O)[O-])ccc1O
inactive: [13] 90 % of control | [18] 97 % of control | [19] 90 % of control

O=C1N(c2ccccc2)P(Cl)(Cl)(Cl)N1c1ccccc1
inactive: [14] 93 % of control | [15] 110 % of control | [20] 93 % of control

Ic1ccc2c(c1)OCCOCCOCCOCCO2
inactive: dose: 50.0 mg/kg/injection, schedule: Q04DX002 (ip), vehicle: saline with Tween-80 102 % of control | [7] 102 % of control | [8] 107 % of control

CCc1ccc(/C(C#N)=C/c2ccc(N(C)C)cc2)cc1
inactive: dose: 25.0 mg/kg/injection, schedule: Q01DX009 (ip), vehicle: Klucel (hydroxypropylcellulose) (HPC) 100 % of control | dose: 50.0 mg/kg/injection, schedule: Q01DX009 (ip), vehicle: Klucel (hydroxypropylcellulose) (HPC) 91 % of control | [1] 96 % of control and 90 % of control

CC(=O)Nc1ccc(N=C/C=C/c2ccccc2)cc1
inactive: [13] 93 % of control | [18] 94 % of control | [19] 98 % of control

C=C[CH2][Sn]([c]1ccccc1)([c]1ccccc1)[c]1ccccc1
inactive: [16] 92 % of control and 101 % of control | dose: 100.0 mg/kg/injection, schedule: Q01DX009 (ip), vehicle: saline 96 % of control and 101 % of control | [17] 91 % of control | dose: 200.0 mg/kg/injection, schedule: Q01DX009 (ip), vehicle: saline 96 % of control and 97 % of control
